Experimental data taken from patent publication US8722578B2, “Spiroheterocyclic pyrrolidinedione herbicidal compositions” (Syngenta Participations AG, priority 2008, dated 2014).

Tests used:
[1] = system: Alopecurus myosuroides (ALOMY); assay: Example B post-emergence herbicidal activity, glasshouse pot test; assay type: in vivo; conditions: 312 h, rate 1000 g/ha, evaluated after 13 days, read-out: ALOMY post-emergence activity (100=total damage to plant; 0=no damage to plant)
In short: (§1)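 Pre-emergence treatment came one day after sowing and post-emergence treatment after 8 days of growth, using an acetone/water (50:50) spray containing 0.5% Tween 20. Percent injury was assessed 13 days later.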

Setaria faberi (SETFA) [2] = assay: as above; assay type: in vivo; conditions: 312 h, rate 1000 g/ha, evaluated after 13 days, read-out: SETFA post-emergence activity (100=total damage to plant; 0=no damage to plant)
In short: as §1

[3] = system: Echinochloa crus-galli (ECHCG); assay: as above; assay type: in vivo; conditions: 312 h, rate 1000 g/ha, evaluated after 13 days, read-out: ECHCG post-emergence activity (100=total damage to plant; 0=no damage to plant)
In short: as §1

Avena fatua (AVEFA) [4] = assay: as above; assay type: in vivo; conditions: 312 h, rate 1000 g/ha, evaluated after 13 days, read-out: AVEFA post-emergence activity (100=total damage to plant; 0=no damage to plant)
In short: as §1

[5] = system: Alopecurus myosuroides (ALOMY); assay: Example A post-emergence herbicidal activity, glasshouse pot test; assay type: in vivo; conditions: 360 h, rate 125 g/ha, evaluated 15 days after spraying, read-out: ALOMY post-emergence activity (100=total damage to plant; 0=no damage to plant)
Experimental: (§2) Monocotyledonous and dicotyledonous test plants are sown in standard soil in pots. After cultivation for one day (pre-emergence) or after 10 days cultivation (post-emergence) under controlled conditions in a glasshouse, the plants are sprayed with an aqueous spray solution derived from the formulation of the technical active ingredient in 0.6 ml acetone and 45 ml formulation solution containing 10.6% Emulsogen EL (Registry number 61791-12-6), 42.2% N-methylpyrrolidone, 42.2% dipropylene glycol monomethyl ether (Registry number 34590-94-8) and 0.2% X-77 (Registry number 11097-66-8). The test plants are then grown in a greenhouse under optimum conditions until, 15 days later for post-emergence and 20 days for pre-emergence, the test is evaluated (100=total damage to plant; 0=no damage to plant). Test Plants: Alopecurus myosuroides (ALOMY), Avena fatua (AVEFA), Lolium perenne (LOLPE), Setaria faberi (SETFA), Digitaria sanguinalis (DIGSA), Echinochloa crus-galli (ECHCG) Post-Emergence Activity

Setaria faberi (SETFA) [6] = assay: as above; assay type: in vivo; conditions: 360 h, rate 125 g/ha, evaluated 15 days after spraying, read-out: SETFA post-emergence activity (100=total damage to plant; 0=no damage to plant)
Experimental: as §2

[7] = system: Echinochloa crus-galli (ECHCG); assay: as above; assay type: in vivo; conditions: 360 h, rate 125 g/ha, evaluated 15 days after spraying, read-out: ECHOG post-emergence activity (100=total damage to plant; 0=no damage to plant)
Experimental: as §2

Avena fatua (AVEFA) [8] = assay: as above; assay type: in vivo; conditions: 360 h, rate 125 g/ha, evaluated 15 days after spraying, read-out: AVEFA post-emergence activity (100=total damage to plant; 0=no damage to plant)
Experimental: as §2

[9] = system: Digitaria sanguinalis (DIGSA); assay: as above; assay type: in vivo; conditions: 360 h, rate 125 g/ha, evaluated 15 days after spraying, read-out: DIGSA post-emergence activity (100=total damage to plant; 0=no damage to plant)
Experimental: as §2

Lolium perenne (LOLPE) [10] = assay: as above; assay type: in vivo; conditions: 360 h, rate 125 g/ha, evaluated 15 days after spraying, read-out: LOLPE post-emergence activity (100=total damage to plant; 0=no damage to plant)
Experimental: as §2

[11] = system: Alopecurus myosuroides (ALOMY); assay: Example B pre-emergence herbicidal activity, glasshouse pot test; assay type: in vivo; conditions: 312 h, first table (headed Post-Emergence, taken as pre-emergence), rate 1000 g/ha, evaluated after 13 days, read-out: ALOMY activity (100=total damage to plant; 0=no damage to plant)
Experimental: (§3) Seeds of a variety of test species are sown in standard soil in pots. After cultivation for one day (pre-emergence) or after 8 days cultivation (post-emergence) under controlled conditions in a glasshouse (at 24/16° C., day/night; 14 hours light; 65% humidity), the plants are sprayed with an aqueous spray solution derived from the formulation of the technical active ingredient in acetone/water (50:50) solution containing 0.5% Tween 20 (polyoxyethelyene sorbitan monolaurate, CAS RN 9005-64-5). The test plants are then grown in a glasshouse under controlled conditions in a glasshouse (at 24/16° C., day/night; 14 hours light; 65% humidity) and watered twice daily. After 13 days for pre and post-emergence, the test is evaluated (100=total damage to plant; 0=no damage to plant). Test Plants: Setaria faberi (SETFA), Alopecurus myosuroides (ALOMY), Echinochloa crus-galli (ECHCG), Avena fatua (AVEFA)

Setaria faberi (SETFA) [12] = assay: as above; assay type: in vivo; conditions: 312 h, first table (headed Post-Emergence, taken as pre-emergence), rate 1000 g/ha, evaluated after 13 days, read-out: SETFA activity (100=total damage to plant; 0=no damage to plant)
Experimental: as §3

[13] = system: Echinochloa crus-galli (ECHCG); assay: as above; assay type: in vivo; conditions: 312 h, first table (headed Post-Emergence, taken as pre-emergence), rate 1000 g/ha, evaluated after 13 days, read-out: ECHCG activity (100=total damage to plant; 0=no damage to plant)
Experimental: as §3

Avena fatua (AVEFA) [14] = assay: as above; assay type: in vivo; conditions: 312 h, first table (headed Post-Emergence, taken as pre-emergence), rate 1000 g/ha, evaluated after 13 days, read-out: AVEFA activity (100=total damage to plant; 0=no damage to plant)
Experimental: as §3

[15] = system: Alopecurus myosuroides (ALOMY); assay: Example A pre-emergence herbicidal activity, glasshouse pot test; assay type: in vivo; conditions: 480 h, rate 250 g/ha, evaluated 20 days after spraying, read-out: ALOMY pre-emergence activity (100=total damage to plant; 0=no damage to plant)
Experimental: as §2, with “Pre-Emergence” for “Post-Emergence”

Setaria faberi (SETFA) [16] = assay: as above; assay type: in vivo; conditions: 480 h, rate 250 g/ha, evaluated 20 days after spraying, read-out: SETFA pre-emergence activity (100=total damage to plant; 0=no damage to plant)
Experimental: as §2, with “Pre-Emergence” for “Post-Emergence”

[17] = system: Echinochloa crus-galli (ECHCG); assay: as above; assay type: in vivo; conditions: 480 h, rate 250 g/ha, evaluated 20 days after spraying, read-out: ECHOG pre-emergence activity (100=total damage to plant; 0=no damage to plant)
Experimental: as §2, with “Pre-Emergence” for “Post-Emergence”

Avena fatua (AVEFA) [18] = assay: as above; assay type: in vivo; conditions: 480 h, rate 250 g/ha, evaluated 20 days after spraying, read-out: AVEFA pre-emergence activity (100=total damage to plant; 0=no damage to plant)
Experimental: as §2, with “Pre-Emergence” for “Post-Emergence”

[19] = system: Digitaria sanguinalis (DIGSA); assay: as above; assay type: in vivo; conditions: 480 h, rate 250 g/ha, evaluated 20 days after spraying, read-out: DIGSA pre-emergence activity (100=total damage to plant; 0=no damage to plant)
Experimental: as §2, with “Pre-Emergence” for “Post-Emergence”

Lolium perenne (LOLPE) [20] = assay: as above; assay type: in vivo; conditions: 480 h, rate 250 g/ha, evaluated 20 days after spraying, read-out: LOLPE pre-emergence activity (100=total damage to plant; 0=no damage to plant)
Experimental: as §2, with “Pre-Emergence” for “Post-Emergence”

SMILES	pest or weed control at 1000 g/ha [1]	pest or weed control at 1000 g/ha (Setaria faberi (SETFA) [2])	pest or weed control at 1000 g/ha [3]	pest or weed control at 1000 g/ha (Avena fatua (AVEFA) [4])	pest or weed control at 125 g/ha [5]	pest or weed control at 125 g/ha (Setaria faberi (SETFA) [6])	pest or weed control at 125 g/ha [7]	pest or weed control at 125 g/ha (Avena fatua (AVEFA) [8])	pest or weed control at 125 g/ha [9]	pest or weed control at 125 g/ha (Lolium perenne (LOLPE) [10])	pest or weed control at 1000 g/ha [11]	pest or weed control at 1000 g/ha (Setaria faberi (SETFA) [12])	pest or weed control at 1000 g/ha [13]	pest or weed control at 1000 g/ha (Avena fatua (AVEFA) [14])	pest or weed control at 250 g/ha [15]	pest or weed control at 250 g/ha (Setaria faberi (SETFA) [16])	pest or weed control at 250 g/ha [17]	pest or weed control at 250 g/ha (Avena fatua (AVEFA) [18])	pest or weed control at 250 g/ha [19]	pest or weed control at 250 g/ha (Lolium perenne (LOLPE) [20])	other results
CCOC(=O)OC1=C(c2ccc(Cl)cc2Cl)C(=O)NC12CCN(OC)CC2 [Compound P16]	100%	100%	100%	80%	70%	50%	50%	30%	50%	20%	70%	90%	40%	50%	30%	10%	20%	30%	0%	50%	melting point: 187 to 189 °C
CCOC(=O)OC1=C(c2c(C)cc(C)cc2C)C(=O)NC12CCN(OC)CC2 [Compound P18]	100%	100%	100%	90%	70%	60%	80%	60%	80%	70%	100%	100%	100%	90%	60%	20%	30%	70%	20%	70%	
CCOC(=O)OC1=C(c2cc(-c3ccc(Cl)cc3)ccc2C)C(=O)NC12CCN(OC)CC2 [Compound P29]	100%	100%	100%	100%	90%	90%	100%	90%	100%	80%	70%	100%	100%	90%	20%	0%	60%	50%	20%	10%	melting point: 209 to 211 °C
CON1CCC2(CC1)NC(=O)C(c1cc(-c3ccc(Cl)cc3)ccc1C)C2=O (stereo not drawn) [Compound T9]	80%	100%	100%	90%	90%	90%	100%	80%	100%	50%					0%	0%	10%	60%	0%	30%	
